Test results published in patent publication US10287301B2 (Achillion Pharmaceuticals, Inc., priority 2015, dated 2019).
Where two headings read alike, the source gives them in different places.

Target: Human Factor D (Homo sapiens (Human), UniProt P00746)
Experiment: Human Factor D Assay
Type: biochemical
In short: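 Serum-purified human Factor D (80 nM final) was preincubated with test compound at various concentrations for 5 min at room temperature in 50 mM Tris, 1M NaCl, pH 7.5. Z-L-Lys-SBzl and DTNB were then added at 100 μM each. IC50 came from nonlinear regression of reaction rates versus compound concentration.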

[1] = Human Factor D 80 nM, substrate Z-L-Lys-SBzl, read-out: IC50
[2] = Human Factor D, Table 3, read-out: IC50
[3] = Human Factor D assay of Example 8, Table 2, read-out: IC50

Chain of Human Factor D (P00746 26-253): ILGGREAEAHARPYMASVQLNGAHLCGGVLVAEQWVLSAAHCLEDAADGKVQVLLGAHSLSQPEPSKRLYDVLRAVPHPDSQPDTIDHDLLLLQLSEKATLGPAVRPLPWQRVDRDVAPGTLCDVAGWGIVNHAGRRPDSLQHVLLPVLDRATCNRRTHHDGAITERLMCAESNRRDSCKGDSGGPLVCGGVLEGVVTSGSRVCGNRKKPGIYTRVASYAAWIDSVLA

`CC1(C)Cc2ccc(NC(=O)[C@@H]3C[C@@H](F)CN3C(=O)Cn3nc(C(N)=O)c4cc(-c5ccnnc5)ccc43)cc2O1` [Compound 76, 1-(2-((2S,4R)-2-(2,2-dimethyl-2,3-dihydrobenzofuran-6-ylcarbamoyl)-4-fluoropyrrolidin-1-yl)-2-oxoethyl)-5-(pyridazin-4-yl)-1H-indazole-3-carboxamide] was tested, and the IC50 [1] was < 1 µM.

For `COc1ncc(-c2ccc3c(c2)c(C(N)=O)nn3CC(=O)N2C[C@H](F)C[C@H]2C(=O)Nc2cccc(Cl)n2)cn1` [Compound 30, 1-(2-((2S,4R)-2-(6-chloropyridin-2-ylcarbamoyl)-4-fluoropyrrolidin-1-yl)-2-oxoethyl)-5-(2-methoxypyrimidin-5-yl)-1H-indazole-3-carboxamide], the IC50 [1] was < 1 µM.

For `Cc1cccc(NC(=O)[C@@H]2[C@H]3CC[C@H](C3)N2C(=O)Cn2cc(C(N)=O)c3cc(-c4ccc5c(c4)CC5)ccc32)n1` [Compound 536, 5-(1,2-Dihydrocyclobutabenzen-4-yl)-1-(2-((1R,3S,4S)-3-(6-methylpyridin-2-ylcarbamoyl)-2-azabicyclo[2.2.1]heptan-2-yl)-2-oxoethyl)-1H-indole-3-carboxamide], the IC50 (Table 3, Human Factor D 80 nM, substrate Z-L-Lys-SBzl, read-out: IC50 (Stars)) was > 10 µM.

`CC(=O)c1nn(CC(=O)N2C[C@H](F)C[C@H]2C(=O)Nc2cccc(C(C)C)n2)c2ccc(-c3cnc4cc(C)nn4c3)cc12` [Compound 680, (2S,4R)-1-(2-(3-acetyl-5-(2-methylpyrazolo[1.5-a]pyrimidin-6-yl)-1H-indazol-1-yl)acetyl)-4-fluoro-N-(6-isopropylpyridin-2-yl)pyrrolidine-2-carboxamide] was tested, and the IC50 [2] was < 1 µM.

`CC(=O)c1nn(CC(=O)N2C[C@H](F)C[C@H]2C(=O)Nc2cccc(Br)n2)c2ccc(-c3ccn4nccc4n3)cc12` [Compound 242, (2S,4R)-1-(2-(3-acetyl-5-(pyrazolo[1,5-a]pyrimidin-5-yl)-1H-indazol-1-yl)acetyl)-N-(6-bromopyridin-2-yl)-4-fluoropyrrolidine-2-carboxamide] was tested, and the IC50 [3] was < 1 µM.

For `CC(=O)c1nn(CC(=O)N2C[C@H](F)C[C@H]2C(=O)Nc2cccc(S(=O)(=O)C(F)(F)F)c2)c2ccc(-c3cnc4cc(C)nn4c3)cc12` [Compound 752, (2S,4R)-1-(2-(3-acetyl-5-(2-methylpyrazolo[1,5-a]pyrimidin-6-yl)-1H-indazol-1-yl)acetyl)-4-fluoro-N-(3-((trifluoromethyl)sulfonyl)phenyl) pyrrolidine-2-carboxamide], the IC50 [2] was < 1 µM.

In the case of `CC(=O)c1nn(CC(=O)N2C[C@H](F)C[C@H]2C(=O)Nc2cccc(C(F)(F)F)n2)c2ccc(-c3cnc4cc(C)nn4c3)cc12` [Compound 264, (2S,4R)-1-(2-(3-acetyl-5-(2-methylpyrazolo[1,5-a]pyrimidin-6-yl)-1H-indazol-1-yl)acetyl)-4-fluoro-N-(6-(trifluoromethyl)pyridin-2-yl)pyrrolidine-2-carboxamide], the IC50 [3] is reported as < 1 µM.

`CC(=O)c1cn(CC(=O)N2C[C@H](F)C[C@H]2C(=O)Nc2cccc(Cl)n2)c2ccc(-c3cnc4ccnn4c3)cc12` [Compound 223, (2S,4R)-1-(2-(3-acetyl-5-(pyrazolo[1,5-a]pyrimidin-6-yl)-1H-indol-1-yl)acetyl)-N-(6-chloropyridin-2-yl)-4-fluoropyrrolidine-2-carboxamide] was tested, and the IC50 [3] was < 1 µM.

In the case of `CC(=O)c1nn(CC(=O)N2C[C@H](F)C[C@H]2C(=O)Nc2cccc(Br)n2)c2ccc(-c3cnc4nc(C)ccn34)cc12` [Compound 321, (2S,4R)-1-(2-(3-acetyl-5-(7-methylimidazo[1,2-a]pyrimidin-3-yl)-1H-indazol-1-yl)acetyl)-N-(6-bromopyridin-2-yl)-4-fluoropyrrolidine-2-carboxamide], the IC50 [3] is reported as < 1 µM.

In the case of `CC(=O)n1cc(NC(=O)N2C[C@H](F)C[C@H]2C(=O)Nc2cccc(-c3ccccc3Cl)c2F)c2ccc(-c3cnc(C)nc3)cc21` [Compound 293], the IC50 [3] is reported as < 1 µM.

For `CC(=O)c1cn(CC(=O)N2C[C@H](F)C[C@H]2C(=O)Nc2cccc(Br)n2)c2ccc(-c3ccc(C)nc3)cc12` [Compound 120, (2S,4R)-1-(2-(3-acetyl-5-(6-methylpyridin-3-yl)-1H-indol-1-yl)acetyl)-N-(6-bromopyridin-2-yl)-4-fluoropyrrolidine-2-carboxamide], the IC50 [1] was < 1 µM.
